Ends that are not written are not given here.
Legend:
[1] = test system: clinical Salmonella isolates; test: Antibiofilm: inhibition of initial cell attachment, crystal violet; assay type: cell-based; settings: 24 h, 30 °C, polystyrene plate, crystal violet OD590
Experimental: The effect of peptides on biofilm formation was tested according to the method described by Sandasi et al. with slight modifications.
Bacterial suspensions of 5 × 10^5 CFU/mL in MHB were prepared as described above. […] The plates were incubated to grow biofilms for 24 h at 30 °C. The incubations of bacteria without peptide and MHB without bacteria were employed as positive (100%) control and negative (0%) control for biofilm growth, respectively. The assay was carried out twice.
The biofilm biomasses obtained from the antibiofilm assay plates were quantified by the crystal violet (CV) staining method with minor modifications. After incubating the plates to grow the biofilms, the growth medium and free bacterial cells were gently removed from the wells and then rinsed thrice with water. The plates were air-dried and subsequently 60 °C oven-dried for 30 min. Each well was stained with 125 µL of 0.1% CV (Merck, Burlington, MA, USA) solution for 15 min. The solution was removed from the wells and further thrice rinsed with water. The biomass bound CV was dissolved with 125 µL of 95% ethanol (Merck) for 5 min, and was transferred into a flat-bottom PS 96-well plate (Jet Biofil, Guangzhou, China). Absorbance values at 590 nm (OD590) of the dissolved solutions were measured by a microplate reader (Tecan Sunrise, Männedorf, Switzerland). Mean OD590 values were determined and all were subtracted by mean OD590 of MHB (negative control) prior to calculate the inhibition (%) as; ((OD590 (no peptide) − OD590 (peptide))/(OD590 (no peptide)) × 100.

[2] = Overall hydrophobicity from RP-HPLC data (percent acetonitrile at elution); assay type: physicochemical; settings: percentage of acetonitrile at which the peptide eluted, more % ACN = more hydrophobic

FIRRIARLLRRIF-NH2 [Kn2-5R-NH2]
Inhibition (%) of cell attachment ([1]; 0.25MBC, isolate 5): 69%
Inhibition (%) of cell attachment ([1]; 0.25MBC, isolate 7): 73.6%
Inhibition (%) of cell attachment ([1]; 0.25MBC, isolate 11): 64.3%
Inhibition (%) of cell attachment ([1]; 0.25MBC, isolate 18): 25%
Inhibition (%) of cell attachment ([1]; 0.25MBC, isolate 26): 88.2%
Inhibition (%) of cell attachment ([1]; 0.25MBC, isolate 27): 79.1%
Inhibition (%) of cell attachment ([1]; 0.25MBC, isolate 55): 73.3%
Inhibition (%) of cell attachment ([1]; 0.25MBC, isolate 61): 33.3%
Inhibition (%) of cell attachment ([1]; 0.25MBC, isolate 69): 40%
Inhibition (%) of cell attachment ([1]; 0.25MBC, isolate 76): 79.1%
Inhibition (%) of cell attachment ([1]; 0.25MBC, isolate 78): 43.9%
Inhibition (%) of cell attachment ([1]; 0.25MBC, isolate 107): 78.3%
Inhibition (%) of cell attachment ([1]; 0.5MBC, isolate 5): 100%
Inhibition (%) of cell attachment ([1]; 0.5MBC, isolate 7): 93%
Inhibition (%) of cell attachment ([1]; 0.5MBC, isolate 11): 100%
Inhibition (%) of cell attachment ([1]; 0.5MBC, isolate 18): 58.3%
Inhibition (%) of cell attachment ([1]; 0.5MBC, isolate 26): 100%
Inhibition (%) of cell attachment ([1]; 0.5MBC, isolate 27): 100%
Inhibition (%) of cell attachment ([1]; 0.5MBC, isolate 55): 84.1%
Inhibition (%) of cell attachment ([1]; 0.5MBC, isolate 61): 63.2%
Inhibition (%) of cell attachment ([1]; 0.5MBC, isolate 69): 64.8%
Inhibition (%) of cell attachment ([1]; 0.5MBC, isolate 76): 100%
Inhibition (%) of cell attachment ([1]; 0.5MBC, isolate 78): 98.9%
Inhibition (%) of cell attachment ([1]; 0.5MBC, isolate 107): 100%
ACN (%) at elution, overall hydrophobicity [2]: 42.1%

Reference: PMC8348142, “Antimicrobial Peptide Modifications against Clinically Isolated Antibiotic-Resistant Salmonella” (Molecules, 2021)
